# According to patent publication US12509422B2, “Bisamide compound and application thereof” (METISA BIOTECHNOLOGY CO., LTD, priority 2019, dated 2025):
# System: Chilo suppressalis
# Experiment: Insecticidal activity against Chilo suppressalis, sprayed Oryza sativa seedlings, stalks fed to larvae
# Type: in vivo
# Settings: parallel comparison test; for pest or weed control at 1 µg/mL / pest or weed control at 10 µg/mL: Chilo suppressalis, 72 h, 3 days after the treatment; for pest or weed control at 1 µg/mL: 1 mg/L, read-out: Lethality rate (%, 3 days after the treatment) 1 mg/L; for pest or weed control at 10 µg/mL: 10 mg/L, read-out: Lethality rate (%, 3 days after the treatment) 10 mg/L
# Experimental: The compounds of the invention were determined for the insecticidal activities against several insects. The determination method was as follows:
# After being dissolved in a mixed solvent of acetone/methanol (1:1), the test compound was diluted with water containing 0.1% (wt) Tween 80 to the desired concentration.
# With Leucania separata, Plutella xylostella, and Chilo suppressalis as targets, airbrush spray method was used for the determination of activity.
# Determination method: 1) Preparation of Oryza sativa seedlings: Oryza sativa was cultivated in a constant temperature room (a temperature of 26-28° C., a relative humidity of about 60-80%, and a light illumination of 16hL:8hD) in a small plastic cup with a diameter of 4.5 cm and a height of 4 cm, and when the Oryza sativa grew up to the 4-5 leaf stage, robust and consistent Oryza sativa seedlings were selected for chemical treatment, and 3 repetitions were performed for each treatment. 2) Preparation for test insects: Chilo suppressalis at 3rd instar larvae were raised continuously indoors. 3) The Oryza sativa stems were sprayed and insects were introduced. Spraying was performed uniformly on the whole plant of the Oryza sativa seedlings, with 15 ml of compound solution for each treatment. The blank control was treated first, and then the above operations were repeated in the order of the test concentration from low to high. After the Oryza sativa seedlings were sprayed, they were placed in a cool place to dry the liquid, and about 5 cm of stalks at the base of the stems were cut and fed to the test insects. A glass petri dish with a diameter of 90 mm was placed with filter paper at the bottom of the dish, and then was moisturized by adding water. After that, about 5 rice stalks and 10 larvae were placed in each dish, and the petri dish was sealed with a non-woven fabric and placed in a constant temperature room for cultivation. The number of remaining live insects was investigated 3 days after the treatment.
# The compounds 1, 3, 7, 11 of this disclosure and the comparative compounds were selected for a parallel comparison test of the insecticidal activity against Chilo suppressalis (3 days after the treatment), through a same determination method as that described above.
Compound,pest or weed control at 1 µg/mL,pest or weed control at 10 µg/mL,"Lethality rate (%, 3 days after the treatment) 0.25 mg/L","Lethality rate (%, 3 days after the treatment) 0.5 mg/L"
O=C(Nc1c(Br)cc(C(F)(C(F)(F)F)C(F)(F)F)cc1C(F)(F)F)c1cccc(N(CC2CC2)C(=O)c2ccc(F)cc2)c1F [Compound 2-1],96.7%,100%,23.33%,66.67%
O=C(Nc1c(Br)cc(C(F)(C(F)(F)F)C(F)(F)F)cc1C(F)(F)F)c1cccc(N(CC2CC2)C(=O)c2ccc(C(F)(F)F)cc2)c1F [Compound 3-1],56.7%,100%,0%,26.67%
O=C(Nc1c(Br)cc(C(F)(C(F)(F)F)C(F)(F)F)cc1C(F)(F)F)c1cccc(N(CC2CC2)C(=O)c2ccc(F)nc2)c1F [Compound 3],100%,100%,100%,100%
N#Cc1ccc(C(=O)N(CC2CC2)c2cccc(C(=O)Nc3c(Br)cc(C(F)(C(F)(F)F)C(F)(F)F)cc3C(F)(F)F)c2F)cc1 [Compound 4-1],93.3%,100%,16.67%,53.33%
O=C(Nc1c(Br)cc(C(F)(C(F)(F)F)C(F)(F)F)cc1Br)c1cccc(N(CC2CC2)C(=O)c2cccnc2)c1F [Compound 1-2],0%,0%,,
O=C(Nc1c(Br)cc(C(F)(C(F)(F)F)C(F)(F)F)cc1C(F)(F)F)c1cccc(N(CC2CC2)C(=O)c2ccc(Cl)nc2)c1F [Compound 5-2],33.3%,70%,,0%
O=C(Nc1c(Br)cc(C(F)(C(F)(F)F)C(F)(F)F)cc1C(F)(F)F)c1cccc(N(CC2CC2)C(=O)c2cccnc2)c1F [Compound 5-1],0%,16.7%,,
O=C(Nc1c(Br)cc(C(F)(C(F)(F)F)C(F)(F)F)cc1Br)c1cccc(N(CC2CC2)C(=O)c2ccc(F)cc2)c1F [Compound 1-1],50%,100%,0%,13.33%
N#Cc1ccc(C(=O)N(CC2CC2)c2cccc(C(=O)Nc3c(Br)cc(C(F)(C(F)(F)F)C(F)(F)F)cc3C(F)(F)F)c2F)cn1 [Compound 11],100%,100%,100%,100%
